Reference: PMC3991719 (PLoS ONE, 2014)

Experiments:
[1] = tested on: TSST-1 production by S. aureus MN8; type: cell-based, Staphylococcus aureus
S. aureus MN8 = type: cell-based, Staphylococcus aureus
L. crispatus = L. crispatus growth and culture pH, 9 h assay; type: cell-based, Lactobacillus crispatus; details: data not shown; for Alteration of L. crispatus media pH compared to untreated controls: broth cultures, pH meter; for Effect on L. crispatus growth (CFUs/ml): human normal vaginal isolate, 9 h assay, plate counts on Todd Hewitt agar
Procedure: Cultures of a human normal vaginal isolate of L. crispatus were subjected to the same 9 hour assay as used to determine peptide antimicrobial effects on S. aureus. CFUs/ml were determined by dilution plate counts on Todd Hewitt agar (BD). The pHs of overnight broth cultures were also determined with use of a standard pH meter.

S. aureus MNPE = type: cell-based, Staphylococcus aureus
[2] = tested on: TSST-1 production by S. aureus MNPE; type: cell-based, Staphylococcus aureus
[3] = tested on: α-toxin production by S. aureus MNPE; type: cell-based, Staphylococcus aureus
[4] = tested on: human vaginal epithelial cells (HVECs)
[5] = tested on: IL-8 production by HVECs exposed to S. aureus MN8; type: cell-based, human

“HNP-1: human defensin peptide purchased from Sigma-Aldrich” was tested. Which “Lowest dose giving complete inhibition of TSST-1 production” value [1] did it give?
Its value is 0.005 µg/mL.

And the “Antimicrobial activity against S. aureus” value (S. aureus MN8)?
Its value is “no antimicrobial activity was observed”.

What about the “Reduction of S. aureus growth” value (S. aureus MN8) of the same substance?
Its value is 1 log.

Which “Lowest dose giving complete inhibition of TSST-1 production” value [1] does the source give for “HNP-2: human defensin peptide purchased from Sigma-Aldrich (CYCRIPACIAGERRYGTCIYQGRLWAFCC)” here?
Its value is 0.005 µg/mL.

And the “Antimicrobial activity against S. aureus” value (S. aureus MN8)?
Its value is “no antimicrobial activity was observed”.

And the “Reduction of S. aureus growth” value (S. aureus MN8)?
The value was 1 log.

What does the source list for “Hbg-2: Hbg-1 peptide with scrambled sequence (STKPFFYFLHTQVKASPTSHDG)”?
TSST-1 inhibition activity (in words) [1]: comparably active as Hbg-1; Alteration of L. crispatus media pH compared to untreated controls (L. crispatus): nor was alteration in media pH observed; Effect on L. crispatus growth (CFUs/ml) (L. crispatus): No inhibition of growth; Effect on S. aureus MN8 growth (CFUs/ml) (S. aureus MN8): not antimicrobial at any concentration tested

What does the source list for “SP-1: hemoglobin-like synthetic peptide, 0% positively-charged amino acids (SFPTTATYFPAFDLSAGSAQVA)”?
TSST-1 inhibition activity (in words) [1]: lacked antimicrobial (data not shown) and TSST-1 inhibition activity; Effect on S. aureus MNPE growth (S. aureus MNPE): lacked antimicrobial; Alteration of L. crispatus media pH compared to untreated controls (L. crispatus): nor was alteration in media pH observed; Effect on L. crispatus growth (CFUs/ml) (L. crispatus): No inhibition of growth; Effect on S. aureus MN8 growth (CFUs/ml) (S. aureus MN8): lacked antimicrobial; TSST-1 inhibition activity (in words) [2]: lacked antimicrobial (data not shown) and TSST-1 inhibition activity; Inhibition of α-toxin production (in words) [3]: no inhibition of α-toxin production

With “SP-2: hemoglobin-like synthetic peptide, 50% positively-charged amino acids (SKPKKKTYKPHKDLSHGSAKKK)” as the substance, how does the “TSST-1 inhibition activity (in words)” value [1] read?
The value was “showed the greatest TSST-1 inhibition activity”.

What about the “Effect on S. aureus MNPE growth” value (S. aureus MNPE) of the same substance?
The value was “without affecting bacterial growth”.

What about the “Cytotoxicity to HVECs” value [4] of the same substance?
Its value is “not cytotoxic”.

And the “Alteration of L. crispatus media pH compared to untreated controls” value (L. crispatus)?
Its value is “nor was alteration in media pH observed”.

And the “Effect on L. crispatus growth (CFUs/ml)” value (L. crispatus)?
Its value is “No inhibition of growth”.

What about the “Effect on S. aureus MN8 growth (CFUs/ml)” value (S. aureus MN8) of the same substance?
The value was “without affecting bacterial growth”.

What about the “IL-8 production by HVECs incubated with MN8 and peptide” value [5] of the same substance?
The value was 3.6 ± 7.2 pg/mL.

What about the “TSST-1 inhibition activity (in words)” value [2] of the same substance?
The value was “showed the greatest TSST-1 inhibition activity”.

And the “Concentration at which inhibition of α-toxin production was shown” value [3]?
Its value is 0.005 µg/mL.
